According to the NIST ThermoML archive (doi:10.1007/s10765-009-0665-4):

Assays:
[1] = 293.15 K; 101.33 kPa; Liquid; Sing-around technique in a fixed-path interferometer
[2] = xn = mol fraction of the nth substance listed; settings: 293.15 K, 101 kPa, Liquid; for speed of sound: Sing-around technique in a fixed-path interferometer

CC(C)CO [2-methyl-1-propanol]
Settings | speed of sound [m/s]
[1] | 1204.1

CCCCO [butan-1-ol]
Settings | speed of sound [m/s]
[1] | 1256.3

C1CCCCC1 [cyclohexane]
Settings | speed of sound [m/s]
[1] | 1279

C1CCCCC1 [cyclohexane] + CCCCO
[2]
Settings | mass density [kg/m3] | speed of sound [m/s]
x2 = 0.00115 | 778.6 | 1278.7
x2 = 0.00245 | 778.5 | 1277.7
x2 = 0.0124 | 778.5 | 1274.6
x2 = 0.0262 | 778.7 | 1271.5
x2 = 0.04084 | 778.8 | 1269.3
x2 = 0.07249 | 779.3 | 1265.3
x2 = 0.1395 | 780.4 | 1258.6
x2 = 0.1897 | 781.4 | 1254.6
x2 = 0.3017 | 784 | 1248.8
x2 = 0.5175 | 790.4 | 1244.4
x2 = 0.6162 | 793.7 | 1244.8
x2 = 0.7983 | 800.8 | 1248.2

CCCCCC [hexane]
Settings | speed of sound [m/s]
[1] | 1098.9

CCCCCC [hexane] + CCCCO
[2]
Settings | mass density [kg/m3] | speed of sound [m/s]
x2 = 0.00305 | 659.9 | 1099
x2 = 0.04764 | 664.4 | 1099.2
x2 = 0.1026 | 670.3 | 1099.8
x2 = 0.1225 | 672.4 | 1100.5
x2 = 0.1509 | 675.6 | 1101.6
x2 = 0.2261 | 684.4 | 1105.9
x2 = 0.2979 | 693.4 | 1112.1
x2 = 0.4965 | 720.9 | 1140
x2 = 0.6128 | 738.8 | 1160.2
x2 = 0.6817 | 750.1 | 1174
x2 = 0.7658 | 764.5 | 1192.1
x2 = 0.8937 | 788.1 | 1224.5
